{"source": "ChEMBL document CHEMBL1201862", "about": "“PubChem BioAssay data set” (2004)", "key": {"Nonstructural protein 1": {"target": "Nonstructural protein 1 (Influenza A virus, UniProt Q194T2)", "sequence (Q194T2 whole entry)": "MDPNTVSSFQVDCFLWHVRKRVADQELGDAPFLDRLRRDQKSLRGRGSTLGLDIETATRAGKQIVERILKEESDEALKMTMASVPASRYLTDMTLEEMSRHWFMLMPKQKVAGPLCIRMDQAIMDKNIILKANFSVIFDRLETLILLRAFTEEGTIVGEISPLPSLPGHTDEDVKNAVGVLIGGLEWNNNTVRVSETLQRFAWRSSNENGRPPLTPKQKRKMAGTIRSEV", "assay_type": "functional, Influenza A virus (A/California/07/2009(H1N1))"}, "Hexokinase-1": {"target": "T1, Hexokinase-1 (Homo sapiens, UniProt P19367)", "T1 sequence (P19367 whole entry)": "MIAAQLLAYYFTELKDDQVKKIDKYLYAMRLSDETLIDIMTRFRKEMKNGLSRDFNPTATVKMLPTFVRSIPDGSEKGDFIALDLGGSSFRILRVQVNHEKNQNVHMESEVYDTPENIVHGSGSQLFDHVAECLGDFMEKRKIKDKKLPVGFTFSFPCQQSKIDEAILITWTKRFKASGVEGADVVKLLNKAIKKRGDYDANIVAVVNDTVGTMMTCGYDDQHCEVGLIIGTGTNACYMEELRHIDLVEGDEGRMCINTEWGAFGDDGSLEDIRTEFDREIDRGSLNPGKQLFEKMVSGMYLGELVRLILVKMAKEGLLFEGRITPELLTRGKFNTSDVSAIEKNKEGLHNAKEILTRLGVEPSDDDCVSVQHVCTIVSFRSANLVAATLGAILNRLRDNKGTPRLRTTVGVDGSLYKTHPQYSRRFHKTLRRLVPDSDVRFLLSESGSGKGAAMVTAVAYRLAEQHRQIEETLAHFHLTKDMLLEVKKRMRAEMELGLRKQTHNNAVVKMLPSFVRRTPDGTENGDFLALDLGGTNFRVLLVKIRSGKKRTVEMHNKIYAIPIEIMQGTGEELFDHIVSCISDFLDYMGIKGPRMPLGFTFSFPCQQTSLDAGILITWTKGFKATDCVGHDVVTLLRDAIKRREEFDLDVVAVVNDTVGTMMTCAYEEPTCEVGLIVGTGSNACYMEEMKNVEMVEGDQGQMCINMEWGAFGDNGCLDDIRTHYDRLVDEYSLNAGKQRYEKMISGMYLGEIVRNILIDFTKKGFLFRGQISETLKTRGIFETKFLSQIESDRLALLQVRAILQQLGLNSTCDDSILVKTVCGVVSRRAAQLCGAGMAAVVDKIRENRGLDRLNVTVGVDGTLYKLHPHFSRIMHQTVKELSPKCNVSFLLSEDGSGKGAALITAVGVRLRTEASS", "assay": "HK1 enzyme activation by HKDC1 hits – biochemical, selectivity assay for HKDC1 activator project, dose response (AID 504762)", "assay_type": "functional"}, "Hexokinase HKDC1": {"target": "T2, Hexokinase HKDC1 (Homo sapiens, UniProt Q2TB90)", "T2 sequence (Q2TB90 whole entry)": "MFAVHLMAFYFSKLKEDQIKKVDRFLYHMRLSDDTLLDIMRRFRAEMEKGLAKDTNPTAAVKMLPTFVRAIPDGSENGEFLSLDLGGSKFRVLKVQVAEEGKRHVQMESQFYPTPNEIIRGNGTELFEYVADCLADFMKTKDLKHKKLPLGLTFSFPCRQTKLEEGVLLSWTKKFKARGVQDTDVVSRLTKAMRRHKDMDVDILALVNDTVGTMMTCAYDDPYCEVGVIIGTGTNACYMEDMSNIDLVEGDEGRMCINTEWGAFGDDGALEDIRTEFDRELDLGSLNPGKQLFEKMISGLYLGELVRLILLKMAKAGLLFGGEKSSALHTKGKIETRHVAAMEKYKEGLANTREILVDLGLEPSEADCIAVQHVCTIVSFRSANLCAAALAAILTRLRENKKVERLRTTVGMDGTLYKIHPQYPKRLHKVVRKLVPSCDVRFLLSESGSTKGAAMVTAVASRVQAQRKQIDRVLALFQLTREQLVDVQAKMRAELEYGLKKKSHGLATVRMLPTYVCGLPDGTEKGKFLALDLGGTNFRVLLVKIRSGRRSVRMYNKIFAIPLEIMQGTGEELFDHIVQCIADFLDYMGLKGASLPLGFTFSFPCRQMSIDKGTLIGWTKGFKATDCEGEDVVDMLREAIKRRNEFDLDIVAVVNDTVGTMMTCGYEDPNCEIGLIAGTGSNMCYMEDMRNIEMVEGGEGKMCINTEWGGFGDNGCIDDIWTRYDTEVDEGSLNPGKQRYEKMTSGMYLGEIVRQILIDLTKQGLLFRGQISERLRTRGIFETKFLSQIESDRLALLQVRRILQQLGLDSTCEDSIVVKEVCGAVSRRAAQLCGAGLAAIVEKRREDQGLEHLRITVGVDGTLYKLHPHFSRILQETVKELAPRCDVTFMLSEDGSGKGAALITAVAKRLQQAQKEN", "assay": "activation of HKDC1 glucose phosphorylation – biochemical, W721R variant, dose response (AID 504730)", "assay_type": "functional"}, "[1]": {"target": "Peroxisome proliferator-activated receptor gamma/Nuclear receptor coactivator 1 (Homo sapiens, UniProt P37231)", "sequence (P37231 whole entry)": "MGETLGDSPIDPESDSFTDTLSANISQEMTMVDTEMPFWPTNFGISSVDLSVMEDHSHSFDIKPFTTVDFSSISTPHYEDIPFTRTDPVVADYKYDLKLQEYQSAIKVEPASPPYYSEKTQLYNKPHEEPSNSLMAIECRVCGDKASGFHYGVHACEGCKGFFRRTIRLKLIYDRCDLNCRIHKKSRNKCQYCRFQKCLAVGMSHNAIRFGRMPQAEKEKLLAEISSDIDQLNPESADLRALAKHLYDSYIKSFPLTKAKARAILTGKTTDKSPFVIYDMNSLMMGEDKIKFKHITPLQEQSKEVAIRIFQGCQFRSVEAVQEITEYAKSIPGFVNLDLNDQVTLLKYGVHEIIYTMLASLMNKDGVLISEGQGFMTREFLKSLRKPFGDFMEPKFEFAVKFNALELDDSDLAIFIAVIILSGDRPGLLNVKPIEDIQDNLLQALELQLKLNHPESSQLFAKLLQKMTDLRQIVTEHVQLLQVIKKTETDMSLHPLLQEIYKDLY", "sequence (Q15788 whole entry, further chain)": "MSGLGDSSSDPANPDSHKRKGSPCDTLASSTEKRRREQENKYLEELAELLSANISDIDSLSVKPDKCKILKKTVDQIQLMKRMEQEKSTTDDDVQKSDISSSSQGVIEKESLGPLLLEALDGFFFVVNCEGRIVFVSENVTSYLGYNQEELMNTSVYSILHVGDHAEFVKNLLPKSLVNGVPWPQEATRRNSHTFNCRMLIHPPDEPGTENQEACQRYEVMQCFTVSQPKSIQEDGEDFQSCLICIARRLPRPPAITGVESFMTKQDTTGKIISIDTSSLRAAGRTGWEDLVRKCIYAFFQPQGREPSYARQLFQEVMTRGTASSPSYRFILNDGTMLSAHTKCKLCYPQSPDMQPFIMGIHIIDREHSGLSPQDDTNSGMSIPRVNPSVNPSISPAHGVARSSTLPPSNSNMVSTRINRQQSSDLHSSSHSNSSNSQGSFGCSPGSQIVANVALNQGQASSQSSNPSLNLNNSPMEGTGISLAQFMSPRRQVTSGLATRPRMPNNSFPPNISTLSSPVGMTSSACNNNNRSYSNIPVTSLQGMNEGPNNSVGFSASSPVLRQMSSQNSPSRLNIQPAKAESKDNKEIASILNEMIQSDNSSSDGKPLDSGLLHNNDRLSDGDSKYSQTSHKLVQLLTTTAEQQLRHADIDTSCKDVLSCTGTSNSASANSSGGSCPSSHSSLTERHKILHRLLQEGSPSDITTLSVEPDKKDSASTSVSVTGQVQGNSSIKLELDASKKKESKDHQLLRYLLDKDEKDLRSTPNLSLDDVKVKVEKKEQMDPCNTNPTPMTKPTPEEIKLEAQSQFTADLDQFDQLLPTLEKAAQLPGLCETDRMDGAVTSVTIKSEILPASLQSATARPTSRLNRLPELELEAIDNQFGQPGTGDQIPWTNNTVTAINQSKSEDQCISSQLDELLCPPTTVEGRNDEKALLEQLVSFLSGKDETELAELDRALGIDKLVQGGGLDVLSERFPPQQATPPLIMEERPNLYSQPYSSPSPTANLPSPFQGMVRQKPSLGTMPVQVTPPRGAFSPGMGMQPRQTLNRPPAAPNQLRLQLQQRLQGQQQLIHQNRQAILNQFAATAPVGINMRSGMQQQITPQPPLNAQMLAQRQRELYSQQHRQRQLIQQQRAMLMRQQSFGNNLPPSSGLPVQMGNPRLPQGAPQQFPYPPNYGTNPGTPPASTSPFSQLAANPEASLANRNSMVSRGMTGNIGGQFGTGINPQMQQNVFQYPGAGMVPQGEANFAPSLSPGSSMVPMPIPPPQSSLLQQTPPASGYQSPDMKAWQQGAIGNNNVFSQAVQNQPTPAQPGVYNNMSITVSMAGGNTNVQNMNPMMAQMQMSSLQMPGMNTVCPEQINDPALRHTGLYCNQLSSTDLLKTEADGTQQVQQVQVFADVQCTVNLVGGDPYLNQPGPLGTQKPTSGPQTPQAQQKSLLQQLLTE", "assay": "(§1) TR-FRET dose response biochemical High Throughput Screening assay for agonists of the steroid receptor coactivator 1 (SRC-1) recruitment by the peroxisome proliferator-activated receptor gamma (PPAR gamma): non-selective agonists. [Related pubchem assays (depositor defined):AID1300, AID1808, AID504735, AID631]", "assay_type": "protein assay"}, "[2]": {"target": "Peroxisome proliferator-activated receptor gamma/Nuclear receptor coactivator 3 (Homo sapiens, UniProt P37231)", "assay": "as §1, with “3 (SRC-3)” for “1 (SRC-1)”, “assays: 1301 (Confirmation screen.), 1048 (Primary screen.)]” for “assays (depositor defined):AID1300, AID1808, AID504735, AID631]”", "assay_type": "functional"}, "[3]": {"target": "Peroxisome proliferator-activated receptor gamma/Nuclear receptor coactivator 2 (Homo sapiens, UniProt P37231)", "sequence (P37231 whole entry)": "as the sequence (P37231 whole entry) above", "sequence (Q15596 whole entry, further chain)": "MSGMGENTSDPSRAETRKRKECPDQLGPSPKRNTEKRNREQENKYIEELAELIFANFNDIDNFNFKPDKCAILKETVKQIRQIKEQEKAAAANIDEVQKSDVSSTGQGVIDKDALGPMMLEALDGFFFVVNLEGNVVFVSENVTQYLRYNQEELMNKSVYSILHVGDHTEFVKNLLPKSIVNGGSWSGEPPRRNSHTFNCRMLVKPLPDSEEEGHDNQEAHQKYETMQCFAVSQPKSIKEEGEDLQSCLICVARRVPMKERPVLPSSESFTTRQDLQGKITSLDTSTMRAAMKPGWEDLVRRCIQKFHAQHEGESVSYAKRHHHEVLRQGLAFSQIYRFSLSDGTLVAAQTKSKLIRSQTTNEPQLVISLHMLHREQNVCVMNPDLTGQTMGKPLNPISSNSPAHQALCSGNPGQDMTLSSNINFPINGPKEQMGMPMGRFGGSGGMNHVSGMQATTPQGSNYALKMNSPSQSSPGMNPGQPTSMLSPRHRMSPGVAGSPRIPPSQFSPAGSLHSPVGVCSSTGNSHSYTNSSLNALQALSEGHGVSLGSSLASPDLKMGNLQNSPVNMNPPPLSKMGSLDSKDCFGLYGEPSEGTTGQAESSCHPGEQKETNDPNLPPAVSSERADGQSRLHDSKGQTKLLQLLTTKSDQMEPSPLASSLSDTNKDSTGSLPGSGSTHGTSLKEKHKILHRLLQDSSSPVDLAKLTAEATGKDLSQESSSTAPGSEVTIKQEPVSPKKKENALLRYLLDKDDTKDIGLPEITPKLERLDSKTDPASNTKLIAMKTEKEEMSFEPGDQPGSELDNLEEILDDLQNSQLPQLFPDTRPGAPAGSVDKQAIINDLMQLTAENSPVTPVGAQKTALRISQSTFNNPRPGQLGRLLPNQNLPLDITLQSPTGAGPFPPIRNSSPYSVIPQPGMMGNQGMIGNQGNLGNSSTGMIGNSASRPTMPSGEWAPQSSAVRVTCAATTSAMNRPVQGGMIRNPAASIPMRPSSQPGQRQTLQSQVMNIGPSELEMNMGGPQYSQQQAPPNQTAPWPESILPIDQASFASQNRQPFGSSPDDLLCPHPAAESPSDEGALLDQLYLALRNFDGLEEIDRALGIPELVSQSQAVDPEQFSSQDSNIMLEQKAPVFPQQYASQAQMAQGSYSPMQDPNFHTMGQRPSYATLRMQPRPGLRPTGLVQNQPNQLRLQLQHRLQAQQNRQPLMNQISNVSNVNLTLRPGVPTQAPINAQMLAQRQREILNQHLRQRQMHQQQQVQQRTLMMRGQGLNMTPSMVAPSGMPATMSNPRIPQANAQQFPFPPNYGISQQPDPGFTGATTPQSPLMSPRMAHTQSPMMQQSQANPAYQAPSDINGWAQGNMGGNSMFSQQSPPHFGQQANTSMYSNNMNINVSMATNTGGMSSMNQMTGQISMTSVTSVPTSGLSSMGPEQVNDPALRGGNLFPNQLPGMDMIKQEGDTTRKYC", "assay": "TR-FRET dose response biochemical High Throughput Screening assay for agonists of the steroid receptor coactivator 2 (SRC-2) recruitment by the peroxisome proliferator-activated receptor gamma (PPAR gamma): non-selective agonists. [Related pubchem assays: 1297, 1032 ]", "assay_type": "functional"}, "[4]": {"target": "T3, Ubiquitin-conjugating enzyme E2 N (Homo sapiens, UniProt P61088)", "T3 sequence (P61088 whole entry)": "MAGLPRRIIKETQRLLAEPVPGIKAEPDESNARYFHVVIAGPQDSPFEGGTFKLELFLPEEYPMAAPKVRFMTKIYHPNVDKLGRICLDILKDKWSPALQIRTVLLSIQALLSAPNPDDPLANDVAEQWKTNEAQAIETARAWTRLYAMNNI", "assay_type": "functional"}, "[5]": {"target": "T3, Ubiquitin-conjugating enzyme E2 N", "assay_type": "functional", "remark": "listed apart in the source"}, "Bcl-2-related protein A1": {"target": "T4, Bcl-2-related protein A1 (Mus musculus, UniProt Q07440)", "T4 sequence (Q07440 whole entry)": "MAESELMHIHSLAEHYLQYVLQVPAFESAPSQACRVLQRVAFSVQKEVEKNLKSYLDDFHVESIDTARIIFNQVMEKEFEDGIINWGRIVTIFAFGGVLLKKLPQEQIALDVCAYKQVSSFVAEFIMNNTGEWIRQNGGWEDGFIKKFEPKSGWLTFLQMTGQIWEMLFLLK", "assay_type": "functional"}, "[6]": {"assay": "viability of PTEN-deleted HCT116 cells – cell-based, HCT116 PTEN knockout, dose response (AID 1047)", "assay_type": "functional"}, "[7]": {"assay": "viability of HCT116 lacking mutant beta-catenin – cell-based, human colon tumor, dose response (AID 1045)", "assay_type": "functional"}, "Vero": {"system": "Vero", "assay": "cells", "assay_type": "functional, cell-based", "conditions": "Chlorocebus sabaeus"}, "Streptokinase A": {"target": "T5, Streptokinase A (Streptococcus pyogenes serotype M1, UniProt P10520)", "T5 sequence (P10520 whole entry)": "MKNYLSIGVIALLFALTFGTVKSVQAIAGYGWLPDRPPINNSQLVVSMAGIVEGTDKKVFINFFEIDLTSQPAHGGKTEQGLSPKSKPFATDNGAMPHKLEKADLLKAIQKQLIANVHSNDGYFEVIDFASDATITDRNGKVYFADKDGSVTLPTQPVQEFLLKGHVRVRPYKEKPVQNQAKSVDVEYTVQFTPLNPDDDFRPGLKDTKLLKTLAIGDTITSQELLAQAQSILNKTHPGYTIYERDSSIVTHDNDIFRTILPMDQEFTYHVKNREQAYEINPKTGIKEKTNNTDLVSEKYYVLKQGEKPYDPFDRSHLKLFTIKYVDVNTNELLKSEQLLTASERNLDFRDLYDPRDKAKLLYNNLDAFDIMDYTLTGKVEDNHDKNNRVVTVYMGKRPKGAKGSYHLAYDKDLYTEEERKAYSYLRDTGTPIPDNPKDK", "assay": "viability-normalized secreted streptokinase activity reduction – plasminogen activation absorbance, OD405, dose response (AID 1914)", "assay_type": "functional, Streptococcus pyogenes M1 GAS"}, "[8]": {"target": "G-protein coupled receptor 55 (Homo sapiens, UniProt Q9Y2T6)", "sequence (Q9Y2T6 whole entry)": "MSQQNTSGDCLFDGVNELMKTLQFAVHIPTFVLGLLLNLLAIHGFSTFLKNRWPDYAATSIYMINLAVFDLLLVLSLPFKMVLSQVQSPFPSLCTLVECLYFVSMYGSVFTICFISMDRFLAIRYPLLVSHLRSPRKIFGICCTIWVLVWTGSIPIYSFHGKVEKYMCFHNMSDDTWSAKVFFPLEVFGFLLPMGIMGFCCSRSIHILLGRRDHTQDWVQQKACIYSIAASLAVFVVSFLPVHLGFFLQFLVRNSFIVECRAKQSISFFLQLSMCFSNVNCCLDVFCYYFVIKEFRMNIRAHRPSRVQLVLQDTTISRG", "assay": "inhibition of LPI-stimulated GPR55 beta-arrestin translocation – imaging, U2OS, beta-arrestin-GFP, LPI agonist, primary screen (AID 2013)", "assay_type": "functional"}, "Streptococcus": {"system": "Streptococcus", "assay": "GAS UMAA2166 growth inhibition – luminescence, BacTiterGlo, counter-screen for streptokinase expression inhibitor project, dose response (AID 1915)", "assay_type": "functional, organism-based"}, "[9]": {"system": "Streptococcus sp. 'group A'", "assay": "Streptococcus pyogenes SK(-)GAS viability under kanamycin – luminescence, BacTiterGlo, confirmation, counter-screen for streptokinase expression inhibitor project, dose response (AID 1900)", "assay_type": "functional, organism-based"}, "Hexokinase": {"target": "T6, Hexokinase (Trypanosoma brucei, UniProt Q38C41)", "T6 sequence (Q38C41 whole entry)": "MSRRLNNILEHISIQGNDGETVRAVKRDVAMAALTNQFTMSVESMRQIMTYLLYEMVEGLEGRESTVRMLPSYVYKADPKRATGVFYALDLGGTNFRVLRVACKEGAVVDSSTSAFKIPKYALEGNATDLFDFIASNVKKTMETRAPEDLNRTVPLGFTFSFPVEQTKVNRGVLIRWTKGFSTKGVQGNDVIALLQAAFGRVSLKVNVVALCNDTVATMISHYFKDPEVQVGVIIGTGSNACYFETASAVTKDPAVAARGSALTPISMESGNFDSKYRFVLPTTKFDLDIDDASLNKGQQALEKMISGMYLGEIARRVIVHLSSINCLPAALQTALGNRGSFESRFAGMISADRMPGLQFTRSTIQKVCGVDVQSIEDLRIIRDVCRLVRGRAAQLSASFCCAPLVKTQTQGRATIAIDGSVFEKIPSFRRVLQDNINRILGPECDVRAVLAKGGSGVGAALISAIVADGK", "assay": "Confirmation assay for inhibitors of Trypanosoma brucei hexokinase 1-Analogue-first series. [Related pubchem assays (depositor defined):AID1430, AID1632, AID2516, AID2560, AID2579, AID2600, AID449725, AID492951]", "assay_type": "functional"}}, "note": "The source made the active and inactive calls.", "data": [{"smiles": "Nn1cnnc1N/N=C/c1cc(Br)cc(Br)c1O", "values": [{"measurement": "IC50", "setting": "Nonstructural protein 1", "value": "10.7 µM (active)"}, {"measurement": "EC50", "setting": "Hexokinase-1", "value": "42.3 µM (inactive)"}, {"measurement": "EC50", "setting": "Hexokinase HKDC1", "value": "> 80 µM (inactive)"}]}, {"smiles": "CCOC(=O)N1CCC(NC(=O)CSc2cc(=O)n(CC)c3ccccc23)CC1", "values": [{"measurement": "EC50", "setting": "[1]", "value": "> 79.4 µM (inactive)"}, {"measurement": "EC50", "setting": "[2]", "value": "> 79.4 µM (not active)"}, {"measurement": "EC50", "setting": "[3]", "value": "> 79.4 µM (not active)"}]}, {"smiles": "O=C(NNC(=O)c1nn(-c2ccc(F)cc2)ccc1=O)c1ccccc1Cl", "values": [{"measurement": "IC50", "setting": "[4]", "value": "4.29 µM (active)"}, {"measurement": "IC50", "setting": "[5]", "value": "9.9 µM (active)"}, {"measurement": "IC50", "setting": "Bcl-2-related protein A1", "value": "> 20 µM (inactive)"}]}, {"smiles": "CCOc1ccccc1NC(=O)C(OC(=O)c1ccc(O)cc1)c1ccccc1", "note": "(stereo not given)", "values": [{"measurement": "EC50", "setting": "[6]", "value": "729 µM (active)"}, {"measurement": "IC50", "setting": "[4]", "value": "> 20 µM (inactive)"}, {"measurement": "IC50", "setting": "[5]", "value": "15.2 µM (active)"}, {"measurement": "IC50", "setting": "Bcl-2-related protein A1", "value": "> 20 µM (inactive)"}, {"measurement": "EC50", "setting": "[7]", "value": "680 µM (active)"}]}, {"smiles": "COc1cccc(-c2ccc(NC(=O)C3CCCN(Cc4cnn(C)c4)C3)cc2)c1", "note": "(stereo not given)", "values": [{"measurement": "IC50", "setting": "Vero", "value": "21.9 µM (active)"}]}, {"smiles": "COc1ccc(C(=O)NC(=S)N(Cc2ccccc2)Cc2ccccc2)cc1", "values": [{"measurement": "EC50", "setting": "Streptokinase A", "value": "> 150 µM (not active)"}, {"measurement": "IC50", "setting": "[8]", "value": "4.36 µM (active)"}, {"measurement": "EC50", "setting": "Streptococcus", "value": "14.5 µM (active)"}, {"measurement": "EC50", "setting": "[9]", "value": "0.883 µM (active)"}]}, {"smiles": "O=C(Nc1cc(Cl)ccc1C(=O)O)c1ccc(Cl)cc1", "values": [{"measurement": "IC50", "setting": "Hexokinase", "value": "> 25 µM (inactive)"}]}]}
